Data as given in patent US10500224B2, “Mutual prodrug comprising short chain fatty acids and zebularine or 1'-cyano-cytarabine for cancer treatment” (KAINOS MEDICINE, INC., priority 2013, dated 2019).

Legend:
[1] = tested on: MV-4-11 (human biphenotypic B myelomonocytic leukemia); assay: Anti-proliferative activity test (CellTiter-Glo), MV-4-11; format: cell-based; conditions: MV-4-11, hematological
Method: (§1) Six hundred cells in 90 media were plated per well in duplicates in a 96-well plate. Cells were incubated in a humidified incubator at 37° C. with 5% CO2 during the assay. DMSO was added to the test compounds with the final DMSO concentration being 0.1% [v/v] of the culture. 100 μl of CellTiter-Glo® was added to the equal volume of cultured cells to read luminescence in EnVision Multi Label Reader.

[2] = tested on: HCT 116 (human colorectal carcinoma); assay: Anti-proliferative activity test (CellTiter-Glo), HCT 116; format: cell-based; conditions: HCT 116, colon cancer
Method: as §1

[3] = tested on: Hep G2 (human hepatocellular carcinoma); assay: Anti-proliferative activity test (CellTiter-Glo), Hep G2; format: cell-based; conditions: Hep G2, liver cancer
Method: as §1

[4] = tested on: HL-60 human leukemia xenograft; assay: Tumor growth inhibition of IP-administered Compound 12 in HL-60 human leukemia xenograft; format: in vivo, NOD/SCID female mice
Method: Tumor growth inhibition activities of IP-administered Ara-C and Compound 12 were compared in HL-60 human leukemia xenograft.
NOD/SCID female mice of 6-8 weeks age and weighing approximately 18 to 22 g, were used for tumor inoculation. Each mouse was inoculated subcutaneously at the right flank with HL-60 tumor cells (1×10^7 cells) in mixture of 100 μl of PBS and 100 of μl Matrigel™ for tumor development. Eight mice were used for each group (n=8/group). The amounts of treated compounds are represented in milligram (mg) of compound per kilogram (kg) of animal body weight (mg/kg, mpk). Administration route of all test compounds was through IP injection. […] The overall administration schedule was 2 cycles of compound treatment for 5 days, followed by 2 days of non-treatment. Tumor sizes were measured using a caliper, once every 4 days, and the tumor volume was expressed in mm^3 using Equation 1.
The tumor volume (mm^3) and body weight (g) results of five groups are shown in FIGS. 5A and 5B, respectively.

[5] = tested on: HL-60 human leukemia xenograft; assay: Efficacy of PO-administered Compound 12 in HL-60 human leukemia xenograft; format: in vivo, NOD/SCID female mice; conditions: 5 d ON/2 d Off × 2
Method: Tumor growth inhibition (TGI) activities of IP-administered Ara-C, and PO-administered Compound 12 were compared in HL-60 human leukemia xenografts.
NOD/SCID female mice of 6-8 weeks age and weighing approximately 18 to 22 g, were used for tumor inoculation. Each mouse was inoculated subcutaneously at the right flank with HL-60 cancer cells (1×10^7 cells) in mixture of 100 μl of PBS and 100 μl of Matrigel™ for tumor development. Eight mice were used for each group (n=8/group). The amounts of treated compounds are represented in milligram (mg) of compound per kilogram (kg) of animal body weight (mg/kg, mpk). Administration route of the test compound was either intraperitoneal (IP) injection or peros (PO, oral) injection. […] The overall administration schedule was 2 cycles of treatment for 5 days (5 d ON), followed by 2 days of non-treatment (2 d OFF). Tumor sizes were measured using a caliper, once every 4 days, and the tumor volume was expressed in mm^3 using Equation 1: V=0.5a×b^2 [Equation 1]
Wherein, a and b are the long and short diameters of the tumor, respectively.
The tumor volume (mm^3) and body weight (g) results of the three groups are shown in FIGS. 4A and 4B, respectively.

[6] = tested on: HL-60 (human acute promyelocytic leukemia); assay: Anti-proliferative activity test (CellTiter-Glo), HL-60; format: cell-based; conditions: HL-60, hematological
Method: as §1

[7] = tested on: MOLT-4 (human acute lymphoblastic leukemia); assay: Anti-proliferative activity test (CellTiter-Glo), MOLT-4; format: cell-based; conditions: MOLT-4, hematological
Method: as §1

[8] = target: T1, recombinant human cytidine deaminase (CDA) (Homo sapiens, UniProt P32320); assay: Cytidine deaminase (CDA) assay; format: biochemical
T1 construct: His6; host or cells: E. coli
T1 sequence (P32320 whole entry): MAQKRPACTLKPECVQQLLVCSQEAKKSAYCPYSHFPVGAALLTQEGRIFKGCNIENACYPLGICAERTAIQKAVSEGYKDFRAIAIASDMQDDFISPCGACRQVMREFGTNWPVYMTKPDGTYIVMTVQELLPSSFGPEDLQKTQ

[9] = Mouse pharmacokinetics of Compound 12; format: in vivo, ICR mice; conditions: ICR, plasma, 10 mg/kg
Method: (§2) Pharmacokinetics of Compound 12 prepared in Example 1 were evaluated in ICR mice and SD rats following intravenous (IV) administration at 10 mg/kg and peroral (PO) administration at 10 mg/kg dose level, respectively.
(§3) For serum compound analysis, blood samples were collected by cardiac puncture over 24 hr time course. 20 μl of spiked plasma was added into 96 well plate, adding ten volumes of internal standard (IS) in acetonitrile (ACN) to precipitate proteins, mixed fully, centrifuged for 10 min at 4,000 rpm. 150 μl of supernatant was transferred to another pre-labeled 96 well plate, mixed with 150 μl of water, then injected 5 μl or 10 μl into the liquid chromatography-mass spectrometry (LC-MS) system under the following conditions:
(§4) Column: API-4000+Waters UPLC (TCLM08);
(§5) Lower limit of quantification (LLOQ) was at 1 ng/mL. Pharmacokinetic parameters of half-life (T1/2), clearance (CL), maximum plasma concentration (Cmax), time when the maximal serum concentration of compound is achieved (Tmax) and bioavailability (F %), exposure (AUC) and volume of distribution (Vss) of the compound were calculated using Phoenix WinNonlin 6.3 (non-compartmental model).

[10] = Rat pharmacokinetics of Compound 12; format: in vivo, SD rats; conditions: SD, plasma, 10 mg/kg
Method: as §2, §3, §4, §5

[11] = Pharmacokinetics of Compounds 16, 22 and 23; format: in vivo, SCID/mice; conditions: SCID, mouse, plasma
Method: Pharmacokinetics of Compound 16 (Comparative example) prepared in step 3 of Example 2, and mutual prodrugs of Compounds 22 and 23 prepared in Example 3 and 4, respectively, were evaluated in SCID/mice following oral (PO) and intravenous (IV) administration according to the route/dose as shown in Table 4.
Blood samples were collected over 24 hrs, and plasma samples were prepared. Plasma concentrations of the test compounds were analyzed by LC/MS/MS. The maximum plasma concentration (Cmax), exposure (AUC), bioavailability (F %), half-life (T1/2), clearance (CL), volume of distribution (Vss), time when the maximal serum concentration of compound is achieved (Tmax) and mean residence time (MRT) were calculated as were in Test Example 3.

[12] = tested on: MOLT-4 xenograft; assay: Tumor growth inhibition of Compounds 22 and 23 in MOLT-4 xenograft; format: in vivo, mice
[13] = 150 mpk, 5 d ON/2 d OFF × 2, FIG. 6

IC50 ([1]; Homo sapiens, MV4-11) [nM] | IC50 ([2]; Homo sapiens) [nM] | IC50 ([3]; Homo sapiens, HepG2) [nM] | IC50 ([6]; Homo sapiens) [nM] | IC50 ([7]; Homo sapiens) [nM] | AUC ([11]; 75 mg/kg, PO/75 mpk) [ng·h/mL] | Cmax ([11]; 75 mg/kg, PO/75 mpk) [µM] | AUC ([11]; 150 mg/kg, PO/150 mpk) [ng·h/mL] | Cmax ([11]; 150 mg/kg, PO/150 mpk) [µM] | MRT ([11]; 150 mg/kg, PO/150 mpk) [h] | Tmax ([11]; 150 mg/kg, PO/150 mpk) [h] | bioavailability ([11]; 150 mg/kg, PO/150 mpk) [%] | half-life ([11]; 150 mg/kg, PO/150 mpk) [h] | SMILES | TGI (%) ([4]; 60 mpk) | TGI [12, 13] [%] | also measured
3100 | 290 | 1910 | 630 | 20 | – | – | – | – | – | – | – | – | Nc1ccn([C@@H]2O[C@H](CO)[C@@H](O)[C@@H]2O)c(=O)n1 [Ara-C, cytarabine] | 60 | – | % BW change ([5]; 40 mpk, IP): −6.2%; % TGI ([5]; 40 mpk, IP): 46%
– | – | – | – | – | – | – | – | – | – | – | – | – | N#C[C@@]1(n2ccc(N)nc2=O)O[C@H](CO)[C@@H](O)[C@@H]1O [Compound 11] | – | – | IC50 [1]: 5000 nM; IC50 [2]: 960 nM; IC50 [3]: 6000 nM; IC50 [6]: 2410 nM; IC50 [7]: 1060 nM; susceptibility to deamination by CDA [8]: resistant to deamination by CDA; Relative rxn velocity ([8]; 0.01 mM substrate, 25° C., OD282, relative to cytidine): <0.01
130 | 220 | 560 | 5060 | 1140 | – | – | – | – | – | – | – | – | CCCC(=O)OC[C@H]1O[C@@](C#N)(n2ccc(N)nc2=O)[C@@H](O)[C@@H]1O [Compound 12, ((2R,3S,4S,5R)-5-(4-amino-2-oxopyrimidin-1(2H)-yl)-5-cyano-3,4-dihydroxytetrahydrofuran-2-yl)methyl Butyrate] | 59 | – | clearance ([9]; IV): 21.6 mL/min/kg; half-life ([9]; IV): 3.1 h; bioavailability ([9]; PO): 62%; half-life ([9]; PO): 4.6 h; TGI (%) ([4]; 20 mpk): 36%; TGI (%) ([4]; 40 mpk): 46%; % BW change ([5]; 60 mpk, PO): −0.9%; % TGI ([5]; 60 mpk, PO): 50%; clearance ([10]; IV): 11.4 mL/min/kg; half-life ([10]; IV): 3.1 h; bioavailability ([10]; PO): 48.8%; half-life ([10]; PO): 2.5 h
– | – | – | – | – | – | – | – | – | – | – | – | – | O=c1ncccn1[C@@H]1O[C@H](CO)[C@@H](O)[C@H]1O [Compound 16, 1-((2R,3R,4S,5R)-3,4-dihydroxy-5-(hydroxymethyl)tetrahydrofuran-2-yl)pyrimidin-2(1H)-one, reference compound] | – | – | AUC ([11]; 100 mg/kg, IV/100 mpk): 54600 ng·h/mL; clearance ([11]; 100 mg/kg, IV/100 mpk): 30.2 mL/min/kg; half-life ([11]; 100 mg/kg, IV/100 mpk): 2.03 h; Vd ([11]; 100 mg/kg, IV/100 mpk, read-out: Vss): 0.91 L/kg; AUC ([11]; 500 mg/kg, PO/500 mpk): 20900 ng·h/mL; Cmax ([11]; 500 mg/kg, PO/500 mpk): 22.3 µM; bioavailability ([11]; 500 mg/kg, PO/500 mpk): 8.4%; half-life ([11]; 500 mg/kg, PO/500 mpk): 2.44 h; TGI ([12]; zebularine, dose not stated, FIG. 6): 10%
– | – | – | – | – | 500 | 0.88 | 1100 | 4.4 | 1.2 | 0.5 | 2.7 | 1.6 | CCCC(=O)OC[C@H]1O[C@@H](n2cccnc2=O)[C@H](OC(=O)CCC)[C@@H]1OC(=O)CCC [Compound 22, (2R,3R,4R,5R)-2-((butyryloxy)methyl)-5-(2-oxopyrimidin-1(2H)-yl)tetrahydrofuran-3,4-diyl Dibutyrate] | – | 40 | –
– | – | – | – | – | 1800 | 5.3 | 6500 | 30.7 | 1.3 | 0.5 | 16 | 4.9 | CC(C)C(=O)OC[C@H]1O[C@@H](n2cccnc2=O)[C@H](OC(=O)C(C)C)[C@@H]1OC(=O)C(C)C [Compound 23, (2R,3R,4R,5R)-2-((isobutyryloxy)methyl)-5-(2-oxopyrimidin-1(2H)-yl)tetrahydrofuran-3,4-diyl bis(2-methylpropanoate)] | – | 40 | –
